The nature of one data set: physchem. Format: physicochemical. How it is done: Form 1 and Form 2 have different equilibrium solubilities: Form 2=0.61 mg/mL and Form 1=0.51 mg/mL.
Data set [1] is described as follows: Interconversion experiments (thermodynamic stability of polymorphs). Format: physicochemical. How it is done:
Form 1 is orthorhombic and contains four molecules of (−)-trans-3-(5,6-dihydro-4H-pyrrolo[3,2,1-ij]quinolin-1-yl)-4-(1H-indol-3-yl)pyrrolidine-2,5-dione per cell. Form 1 has a melting point of ˜218° C. recorded in DSC (See, FIG. 16).
The two polymorphs can be interconverted when proper conditions are used to control the crystallization process. Form 2 can be obtained by dissolving Form 1 in methanol, seeding with Form 2 and evaporating the mixture to dryness by rotary evaporation. The successful conversion was determined to be Form 2 by IR analysis and corroborated by XRPD analysis.

Data set [2] deals with MDA-MB-231 cells or MIA PaCa-2 (PACA-2) cells. The experiment in a line: Cell survival in six-well plates, Wright-Giemsa stain. Format: cell-based. The note with it: Homo sapiens; 0.1-2 μM, 10-15 days; MDA-MB-231 or Paca-2 cells, cell line of the IC50 not stated. As to the method:
Exponentially growing MDA-MB-231 cells or MIA PaCa-2 (also known as PACA-2) cells were seeded at 1,000 cells per well in six-well plates and allowed to attach for 24 hours. MDA-MB-231 and MIA PaCa-2 cells were cultured in DMEM supplemented with 10% (v/v) fetal bovine serum (FBS) and 5 ml Penicillin/Streptomycin at 37° C. in 5% CO2. MDA-MB-231 and MIA PaCa-2 were established in estrogen receptor-negative human breast cancer and pancreatic carcinoma cell lines, respectively. (±)-cis-3-(5,6-dihydro-4H-pyrrolo[3,2,1-ij]quinolin-1-yl)-4-(1H-indol-3-yl)pyrrolidine-2,5-dione or (±)-trans-3-(5,6-dihydro-4H-pyrrolo[3,2,1-ij]quinolin-1-yl)-4-(1H-indol-3-yl)pyrrolidine-2,5-dione were each dissolved at a concentration of 10 mM in DMSO, and separately added to cells at a concentration of 0.1, 0.25, 0.5, 1 or 2 μM. Control plates received DMSO alone, at the same percentage of total culture volume as that administered in conjunction with the highest concentration of drug. Cell cultures were observed daily for 10-15 days, then fixed and stained with modified Wright-Giemsa stain (Sigma). Treatment with (±)-cis-3-(5,6-dihydro-4H-pyrrolo[3,2,1-ij]quinolin-1-yl)-4-(1H-indol-3-yl)pyrrolidine-2,5-dione or (±)-trans-3-(5,6-dihydro-4H-pyrrolo[3,2,1-ij]quinolin-1-yl)-4-(1H-indol-3-yl)pyrrolidine-2,5-dione results in cell death of MDA-MB-231 cells or Paca-2 cells. See, e.g., FIG. 2.

For data set [3], the target named is Recombinant Protein Kinase C. Put plainly: Protein Kinase C kinase assay (Histone H1, 32P-ATP, autoradiography). It counts as biochemical. The following applies: for 15 minutes at room temperature. Also noted: dose or concentration left out as unconfirmed. As to the method: Recombinant Protein Kinase C (Calbiochem) (100 ng) was incubated with (±)-cis-3-(5,6-dihydro-4H-pyrrolo[3,2,1-ij]quinolin-1-yl)-4-(1H-indol-3-yl)pyrrolidine-2,5-dione or (±)-trans-3-(5,6-dihydro-4H-pyrrolo[3,2,1-ij]quinolin-1-yl)-4-(1H-indol-3-yl)pyrrolidine-2,5-dione at […] for 15 minutes at room temperature. Subsequently, a radioactive labeling mix in kinase buffer (20 mM Tris-HCl pH 7.5, 10 mM MgCl2) containing 20 μM ATP, 0.2 μCi/μl γ^32P-ATP, 0.2 μg/μl Histone H1 (Upstate Biotechnology/Millipore, Bedford, Mass.) was added to each sample. The kinase reaction was carried out for 5 minutes at room temperature. Reaction products were analyzed by 12% SDS-PAGE and autoradiography.

A further data set concerns the target c-Met (Homo sapiens, UniProt P08581). The experiment in a line: c-Met phosphorylation in MDA-MB-231 cells, basal and HGF-induced (Western blot). It counts as cell-based. Also noted: Whole cell extracts were prepared in lysis buffer; endogenous in cells; host or cells: MDA-MB-231. The note with it: 20 μM. As to the method: MDA-MB-231 cells were serum-deprived overnight (16 hours) in the absence or in the presence of the indicated concentrations of the separate enantiomers (+)-trans-3-(5,6-dihydro-4H-pyrrolo[3,2,1-ij]quinolin-1-yl)-4-(1H-indol-3-yl)pyrrolidine-2,5-dione and (−)-trans-3-(5,6-dihydro-4H-pyrrolo[3,2,1-ij]quinolin-1-yl)-4-(1H-indol-3-yl)pyrrolidine-2,5-dione. Cells were treated with 100 ng/ml recombinant human Hepatocyte Growth Factor/Scatter Factor (HGF/SF) (R&D Systems #294-HG) for 10 minutes. Whole cell extracts were prepared in lysis buffer (20 mM Tris-HCl pH 7.5, 150 mM NaCl, 1 mM Na2EDTA, 1 mM EGTA, 1% Triton X-100, 2.5 mM sodium pyrophosphate, 1 mM beta-glycerophosphate, 1 mM Na3VO4, 1 μg/ml leupeptin, 1 mM phenylmethylsulfonyl fluoride) and sonicated. Protein concentration was measured by Bradford assay using the BioRad reagent (BioRad, Hercules, Calif.), according to the manufacturer's directions. Samples ([…] of protein) were resolved by 8% SDS-PAGE under reducing conditions and transferred onto a PVDF membrane (BioRad). […] Proteins were detected by incubation overnight at 4° C. in TBS-T with 5% milk and either a polyclonal antibody against phosphorylated c-Met (#3121) or a monoclonal antibody against β-actin (A-5441) (Sigma), which was used as a control for total protein loading. […]

The next data set concerns MDA-MB-231 cells. Put plainly: Colony formation / surviving fraction assay. It counts as cell-based. The note with it: Homo sapiens, two days incubation, colonies counted two weeks later, read-out: IC50 (surviving fraction equaled 50). How it is done: MDA-MB-231 cells (ATCC #HTB-26), grown in DMEM plus 15% heat inactivated fetal bovine serum plus 10 mM HEPES pH 7.5, were plated in 60 mm^2 plates (2×10^5 cells per plate). After two days candidate compounds in DMSO at various concentrations were diluted in media and added to individual plates such that the final DMSO concentration in the cell culture media was 0.1%. After two days incubation the culture was trypsinized, cells were washed with media, counted using a hemocytometer and 500 cells, including cell bodies, were plated in 100 mm^2 plates in media. Two weeks later the media was removed and the cell colonies were fixed with methanol for 10 minutes, stained with 1% crystal violet for 10 minutes, washed with water and air dried. Cell colonies were visually counted when there were greater then 50 cells present per colony. Plating efficiency was defined as the average number of colonies formed divided by 500. The surviving fraction was defined as the plating efficiency of a candidate compound divided by the plating efficiency of DMSO multiplied by 100. For candidate compound titrations, the IC50 value was determined by fitting the equation y=Ae^Bx to the data points and extrapolating the concentration where surviving fraction equaled 50. […]

Data set [4] can be described thus: Storage stability of Form 2. It counts as physicochemical. The note with it: 40° C./75% RH for up to six months and 25° C./60% RH for up to 12 months; multiple batches.

Converted amounts (≈) assume the structure as drawn.

c-Met, sequence (P08581 25-1390): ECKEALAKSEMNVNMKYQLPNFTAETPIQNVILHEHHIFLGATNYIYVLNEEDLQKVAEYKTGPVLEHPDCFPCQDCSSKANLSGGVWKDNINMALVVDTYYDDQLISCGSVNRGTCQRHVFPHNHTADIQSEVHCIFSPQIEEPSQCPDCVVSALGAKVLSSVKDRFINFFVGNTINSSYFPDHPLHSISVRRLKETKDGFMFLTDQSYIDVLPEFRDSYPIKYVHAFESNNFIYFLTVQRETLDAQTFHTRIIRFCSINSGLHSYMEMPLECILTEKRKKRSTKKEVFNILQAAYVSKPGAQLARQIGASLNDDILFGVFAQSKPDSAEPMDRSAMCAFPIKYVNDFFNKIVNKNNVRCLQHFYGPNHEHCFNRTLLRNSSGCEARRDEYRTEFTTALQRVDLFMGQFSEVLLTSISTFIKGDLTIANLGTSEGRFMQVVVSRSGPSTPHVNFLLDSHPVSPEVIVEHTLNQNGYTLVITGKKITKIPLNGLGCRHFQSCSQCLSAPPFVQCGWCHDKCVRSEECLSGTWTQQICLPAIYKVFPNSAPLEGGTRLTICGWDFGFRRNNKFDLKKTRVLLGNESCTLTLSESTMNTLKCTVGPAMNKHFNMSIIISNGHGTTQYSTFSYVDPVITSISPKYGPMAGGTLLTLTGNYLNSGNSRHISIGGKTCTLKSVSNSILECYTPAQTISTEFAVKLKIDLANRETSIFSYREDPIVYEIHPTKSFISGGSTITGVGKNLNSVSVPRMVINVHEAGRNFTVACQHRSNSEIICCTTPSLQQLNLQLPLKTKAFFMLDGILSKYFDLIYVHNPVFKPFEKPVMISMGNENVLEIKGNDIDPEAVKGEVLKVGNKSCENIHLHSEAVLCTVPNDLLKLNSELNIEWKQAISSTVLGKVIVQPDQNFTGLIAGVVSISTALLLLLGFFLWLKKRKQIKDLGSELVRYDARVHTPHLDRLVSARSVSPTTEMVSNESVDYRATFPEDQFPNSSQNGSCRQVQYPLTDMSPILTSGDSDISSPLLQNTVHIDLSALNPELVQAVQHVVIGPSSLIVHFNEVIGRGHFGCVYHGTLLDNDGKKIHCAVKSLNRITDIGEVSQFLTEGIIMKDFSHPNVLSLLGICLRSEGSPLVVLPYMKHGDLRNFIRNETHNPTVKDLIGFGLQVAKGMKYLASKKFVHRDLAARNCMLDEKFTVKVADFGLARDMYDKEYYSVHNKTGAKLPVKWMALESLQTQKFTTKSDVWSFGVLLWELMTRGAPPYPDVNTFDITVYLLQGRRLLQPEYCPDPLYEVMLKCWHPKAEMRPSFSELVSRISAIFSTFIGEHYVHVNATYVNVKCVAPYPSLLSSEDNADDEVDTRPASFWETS

`O=C1NC(=O)[C@@H](c2cn3c4c(cccc24)CCC3)[C@@H]1c1c[nH]c2ccccc12` [Form 1, (−)-trans-3-(5,6-dihydro-4H-pyrrolo[3,2,1-ij]quinolin-1-yl)-4-(1H-indol-3-yl)pyrrolidine-2,5-dione]: the equilibrium solubilities in “physchem” is 0.51 mg/mL. Further, the thermodynamic stability entry in data set [1] is recorded as “more thermodynamically stable than Form 2”.

Take `O=C1NC(=O)[C@@H](c2cn3c4c(cccc24)CCC3)[C@@H]1c1c[nH]c2ccccc12` (racemic) [(±)-trans-3-(5,6-dihydro-4H-pyrrolo[3,2,1-ij]quinolin-1-yl)-4-(1H-indol-3-yl)pyrrolidine-2,5-dione]: in data set [2], the IC50 came out at 500 nM. The “kinase activity in comparison to treatment with carrier alone” value in data set [3] is listed as “did not reduce kinase activity”.

For the compound `O=C1NC(=O)[C@@H](c2cn3c4c(cccc24)CCC3)[C@@H]1c1c[nH]c2ccccc12` [(+)-trans-3-(5,6-dihydro-4H-pyrrolo[3,2,1-ij]quinolin-1-yl)-4-(1H-indol-3-yl)pyrrolidine-2,5-dione], the “inhibitory effect on c-Met phosphorylation” value against c-Met is recorded as “only a minimum inhibitory effect”. For the same compound, the IC50 in the data set on MDA-MB-231 cells was determined as 4100 nM.

In the case of `O=C1NC(=O)[C@@H](c2cn3c4c(cccc24)CCC3)[C@@H]1c1c[nH]c2ccccc12` [Form 2, (−)-trans-3-(5,6-dihydro-4H-pyrrolo[3,2,1-ij]quinolin-1-yl)-4-(1H-indol-3-yl)pyrrolidine-2,5-dione], the solubility (thermodynamic) in the data set “physchem” (thermodynamic from solid, equilibrium solubilities) came to 610 µg/mL (≈ 1650 µM). In data set [4], the “change in crystalline form or purity upon storage” value is recorded as “No discernable change in crystalline form or purity”.

In turn, `O=C1NC(=O)[C@@H](c2cn3c4c(cccc24)CCC3)[C@H]1c1c[nH]c2ccccc12` (racemic) [(±)-cis-3-(5,6-dihydro-4H-pyrrolo[3,2,1-ij]quinolin-1-yl)-4-(1H-indol-3-yl)pyrrolidine-2,5-dione] showed an IC50 in data set [2] of 500 nM. The “kinase activity in comparison to treatment with carrier alone” value in data set [3] was “did not reduce kinase activity”.

For orientation: IC50 means the concentration that gives 50% inhibition. As usually defined, the thermodynamic solubility is the concentration in solution at equilibrium with solid.

Values taken from patent US8871933B2, “Purified pyrroloquinolinyl-pyrrolidine-2,5-dione compositions and methods for preparing and using same” (ArQule, Inc., priority 2009, dated 2014).
